According to patent publication US5017619A, “Phenethanolamine derivatives” (Hoffmann-La Roche Inc., priority 1985, dated 1991):
Read-outs that look alike come from different tables or passages of the source.

Columns and labels:
[1] = test system: male albino rats; assay: Activity on oxygen consumption; type: in vivo; settings: rat, per os, corrected for placebo group; for response vs control in vivo at 1 µM, 1 µmol/kg / response vs control in vivo at 0.3 µM, 0.3 µmol/kg / response vs control in vivo at 3 µM, 3 µmol/kg: po; for response vs control in vivo at 1 µM, 1 µmol/kg: 1 μM/kg; for response vs control in vivo at 3 µM, 3 µmol/kg: 3 μM/kg
Method: (1) Activity on oxygen consumption
Male albino rats weighing 160-180 g were placed in metabolic cages after fasting for 24 hours. The cages were ventilated with a constant 6 liter room air/minute which was equilibrated at a dew point of 11° C. Samples of the spent air were collected during periods of in each case 14 minutes after again equilbrating and the oxygen content and CO2 content were analyzed. After an adaptation time of 4 hours the animals, divided into groups of 6, received either placebo (5% gum arabic) or the test substance (suspended in 5% gum arabic) per os. Thereafter, the determinations were carried out for a period of 12 hours. In Table I there is given the percentage of the average oxygen consumption after medication during the first 3 hours and the entire test duration (12 hours) of the oxygen consumption of the adaptation period, corresponding corrections for variations in the placebo group having been taken into consideration.

[2] = test system: female hyperglycaemic fat mice; assay: Activity on urine glucose and blood glucose and the formation of brown adipose tissue (obese-hyperglycaemic mice); type: in vivo; settings: oral, percentage of control value; for Blood glucose / Brown adipose tissue (weight of interscapular brown adipose tissue): end of 15-day test
Method: (2) Activity on urine glucose and blood glucose and the formation of brown adipose tissue
Female hyperglycaemic fat mice were adapted to an amount of feed limited to 3 g/day/animal. The test compounds (suspended in 5% gum arabic) or placebo (5% gum arabic) were administered orally twice daily during 15 days. Urine was collected for 6 days a week and urine glucose was determined. Blood glucose and the weight of the interscapular brown adipose tissue were determined at the end of the test.
The test results are given in Table II as a percentage of the control value.

[3] = test system: streptozotocin-diabetic rats; assay: Activity on the urine glucose of streptozotocin-diabetic rats; type: in vivo, albino rats; settings: oral, 90 μM/kg per day, 2nd week of treatment
Method: (3) Activity on the urine glucose of streptozotocin-diabetic rats
A diabetes was produced in female albino rats (weight 130-140 g) by the subcutaneous injection of streptozotocin (70 mg/kg). The diabetic animals were adapted to an amount of feed limited to 15 g/day/animal. The test compound (suspended in 5% gum arabic) or placebo (5% gum arabic) was administered orally twice daily. The urine was collected for 6 days a week and urine glucose was determined. The urine glucose excretion of the treated animals during the 2nd week of treatment is given in Table III as a percentage of the control value.

[4] = 3 h, 1st-3rd hour, read-out: O2 consumption, % of value of the pre-period, 1st-3rd hour
[5] = 12 h, 1st-12th hour, read-out: O2 consumption, % of value of the pre-period, 1st-12th hour
[6] = 3 h, 0.3 μM/kg, 1st-3rd hour, read-out: O2 consumption, % of value of the pre-period, 1st-3rd hour
[7] = 12 h, 0.3 μM/kg, 1st-12th hour, read-out: O2 consumption, % of value of the pre-period, 1st-12th hour

**Q.** C[C@H](Cc1ccc(OCCOCCc2ccccc2)cc1)N(C[C@H](O)c1ccccc1)C[C@H](O)c1ccccc1 [Example 1, α,α'-[[[(R)-α-methyl-p-[2-(phenethoxy)ethoxy]phenethyl]imino]dimethylene]di-(R)-benzyl alcohol] was tested. Which response vs control in vivo at 1 µM, 1 µmol/kg [1, 4] did it give?
**A.** 147%

**Q.** And the response vs control in vivo at 1 µM, 1 µmol/kg [1, 5]?
**A.** 117%

**Q.** With CCOCCOc1ccc(C[C@@H](C)N(C[C@H](O)c2ccccc2)C[C@H](O)c2ccccc2)cc1 [Example 2a, α,α'-[[[(R)-p-(2-ethoxyethoxy)-α-methylphenethyl]imino]dimethylene]di-(R)-benzyl alcohol] as the compound, how does the response vs control in vivo at 0.3 µM, 0.3 µmol/kg [1, 6] read?
**A.** 152%

**Q.** And the response vs control in vivo at 0.3 µM, 0.3 µmol/kg [1, 7]?
**A.** 114%

**Q.** Which results are given for COCCOCCOc1ccc(C[C@@H](C)N(C[C@H](O)c2ccccc2)C[C@H](O)c2ccccc2)cc1 [Example 2b]?
**A.** response vs control in vivo at 1 µM, 1 µmol/kg [1, 4]: 166%; response vs control in vivo at 1 µM, 1 µmol/kg [1, 5]: 119%

**Q.** Which response vs control in vivo at 1 µM, 1 µmol/kg [1, 4] does the source give for C[C@H](Cc1ccc(OCCOCCc2ccc(F)cc2)cc1)N(C[C@H](O)c1ccccc1)C[C@H](O)c1ccccc1 [Example 2c] here?
**A.** 167%

**Q.** And the response vs control in vivo at 1 µM, 1 µmol/kg [1, 5]?
**A.** 122%

**Q.** For C[C@H](Cc1ccc(OCCOCc2ccc(Oc3ccccc3)cc2)cc1)N(C[C@H](O)c1ccccc1)C[C@H](O)c1ccccc1 [Example 2e, α,α'-[[[(R)-α-methyl-p-[2-[(p-phenoxybenzyl)oxy]ethoxy]phenethyl]imino]dimethylene]di-(R)-benzyl alcohol], which response vs control in vivo at 1 µM, 1 µmol/kg [1, 4] is on record?
**A.** 145%

**Q.** And the response vs control in vivo at 1 µM, 1 µmol/kg [1, 5]?
**A.** 116%

**Q.** Which response vs control in vivo at 1 µM, 1 µmol/kg [1, 4] does the source give for CCOCCOc1ccc(CCN(C[C@H](O)c2ccccc2)C[C@H](O)c2ccccc2)cc1 [Example 2f, α,α'-[[[p-(2-ethoxyethoxy)phenethyl]imino]dimethylene]di-(R)-benzyl alcohol] here?
**A.** 142%

**Q.** And the response vs control in vivo at 1 µM, 1 µmol/kg [1, 5]?
**A.** 112%

**Q.** And the “Urine glucose 1st week” value ([2]; 9 μM/Kg per day)?
**A.** 43%

**Q.** What about the “Urine glucose 2nd week” value ([2]; 9 μM/Kg per day) of the same compound?
**A.** 33%

**Q.** And the Blood glucose ([2]; 9 μM/Kg per day)?
**A.** 51%

**Q.** And the “Brown adipose tissue (weight of interscapular brown adipose tissue)” value ([2]; 9 μM/Kg per day)?
**A.** 158%

**Q.** And the “Urine glucose 1st week” value ([2]; 90 μM/Kg per day)?
**A.** 4.8%

**Q.** What about the “Urine glucose 2nd week” value ([2]; 90 μM/Kg per day) of the same compound?
**A.** 0.3%

**Q.** What about the Blood glucose ([2]; 90 μM/Kg per day) of the same compound?
**A.** 34%

**Q.** And the “Brown adipose tissue (weight of interscapular brown adipose tissue)” value ([2]; 90 μM/Kg per day)?
**A.** 163%

**Q.** Which results are given for C[C@H](Cc1ccc(OCCOCCc2ccccc2)cc1)N(C[C@H](O)c1cccc(Cl)c1)C[C@H](O)c1cccc(Cl)c1 [Example 2g1, α,α'-[[[(R)-α-methyl-p-[2-(phenethoxy)ethoxy]phenethyl]imino]dimethylene]bis[(R)-m-chlorobenzyl alcohol]]?
**A.** response vs control in vivo at 0.3 µM, 0.3 µmol/kg [1, 6]: 137%; response vs control in vivo at 0.3 µM, 0.3 µmol/kg [1, 7]: 117%

**Q.** What does the source list for CC(Cc1ccc(OCCOCCc2ccccc2)cc1)N(CC(O)c1cccc(Cl)c1)CC(O)c1cccc(Cl)c1 [Example 2g2, (R)-m-chloro-α-[[[(S)-m-chloro-β-hydroxyphenethyl][(R)-α-methyl-p-[2-phenethoxy)ethoxy]phenethyl]amino]-methyl]benzyl alcohol]]?
**A.** response vs control in vivo at 1 µM, 1 µmol/kg [1, 4]: 163%; response vs control in vivo at 1 µM, 1 µmol/kg [1, 5]: 131%; Urine glucose 2nd week, % of controls [3]: 68%; Urine glucose 1st week ([2]; 3 μM/Kg per day): 17.7%; Urine glucose 2nd week ([2]; 3 μM/Kg per day): 2.4%; Blood glucose ([2]; 3 μM/Kg per day): 38%; Brown adipose tissue (weight of interscapular brown adipose tissue) ([2]; 3 μM/Kg per day): 157%; Urine glucose 1st week ([2]; 30 μM/Kg per day): 1.6%; Urine glucose 2nd week ([2]; 30 μM/Kg per day): 0.6%; Blood glucose ([2]; 30 μM/Kg per day): 33%; Brown adipose tissue (weight of interscapular brown adipose tissue) ([2]; 30 μM/Kg per day): 144%

**Q.** With C[C@H](Cc1ccc(OCCOCCc2ccccc2)cc1)N(C[C@@H](O)c1cccc(Cl)c1)C[C@@H](O)c1cccc(Cl)c1 [Example 2g3] as the compound, how does the response vs control in vivo at 3 µM, 3 µmol/kg [1, 4] read?
**A.** 138%

**Q.** And the response vs control in vivo at 3 µM, 3 µmol/kg [1, 5]?
**A.** 119%

**Q.** COC(=O)C=CCOc1ccc(C[C@@H](C)N(C[C@H](O)c2ccccc2)C[C@H](O)c2ccccc2)cc1 [Example 4] was tested. Which “O2 consumption, % of value of the pre-period, 1st-3rd hour” value ([1]; 0.3 μM/kg, 1st-3rd hour) did it give?
**A.** 123%

**Q.** And the “O2 consumption, % of value of the pre-period, 1st-12th hour” value ([1]; 0.3 μM/kg, 1st-12th hour)?
**A.** 110%

**Q.** What does the source list for CCOCCOc1ccc(CCN(C[C@H](O)c2cccc(Cl)c2)C[C@H](O)c2cccc(Cl)c2)cc1 [Example 8d, α,α'-[[[p-(2-ethoxyethoxy)phenethyl]imino]dimethylene]bis[(R)-m-chlorobenzyl alcohol]]?
**A.** response vs control in vivo at 3 µM, 3 µmol/kg [1, 4]: 172%; response vs control in vivo at 3 µM, 3 µmol/kg [1, 5]: 147%

**Q.** Which results are given for CCOCCOc1ccc(C[C@@H](C)N(C[C@H](O)c2ccccc2)C[C@H](O)c2cccc(Cl)c2)cc1 [Example 10a1, 3-chloro-α,α'-[[[(R)-p-(2-ethoxyethoxy)-α-methylphenethyl]imino]dimethylene]di-(R)-benzyl alcohol]?
**A.** response vs control in vivo at 0.3 µM, 0.3 µmol/kg [1, 6]: 154%; response vs control in vivo at 0.3 µM, 0.3 µmol/kg [1, 7]: 117%

**Q.** With CCOCCOc1ccc(C[C@@H](C)N(C[C@@H](O)c2cccc(Cl)c2)C[C@H](O)c2ccccc2)cc1 [Example 10a2, (S)-m-chloro-α-[[[(R)-p-(2-ethoxyethoxy)-α-methylphenethyl][(R)-β-hydroxyphenethyl]amino]methyl]benzyl alcohol] as the compound, how does the response vs control in vivo at 3 µM, 3 µmol/kg [1, 4] read?
**A.** 183%

**Q.** And the response vs control in vivo at 3 µM, 3 µmol/kg [1, 5]?
**A.** 141%

**Q.** Which results are given for CCOCCOc1ccc(CCN(C[C@@H](O)c2cccc(Cl)c2)C[C@H](O)c2cccc(Cl)c2)cc1 [Example 11, (R)-m-chloro-α-[[[(S)-m-chloro-β-hydroxyphenethyl][p-(2-ethoxyethoxy)phenethyl]amino]methyl]benzyl alcohol]?
**A.** response vs control in vivo at 3 µM, 3 µmol/kg [1, 4]: 181%; response vs control in vivo at 3 µM, 3 µmol/kg [1, 5]: 140%

**Q.** With O[C@H](CN(CCc1ccc(OCCOCCc2ccccc2)cc1)C[C@H](O)c1cccc(Cl)c1)c1cccc(Cl)c1 [Example 12a, (R)-m-chloro-α-[[[(S)-m-chloro-β-hydroxyphenethyl]-[p-[2-(phenethoxy)ethoxy]phenethyl]amino]methyl]benzyl alcohol] as the compound, how does the response vs control in vivo at 1 µM, 1 µmol/kg [1, 4] read?
**A.** 143%

**Q.** And the response vs control in vivo at 1 µM, 1 µmol/kg [1, 5]?
**A.** 116%
